Source: patent US8227408B2, “Leptin as an anti-amyloidogenic biologic and methods for delaying the onset and reducing Alzheimer's disease-like pathology” (Neurotez, Inc., priority 2005, dated 2012)

How the values were obtained:
[1] = tested on: transfected Neuro2a cells; experiment: 125I-Aβ degradation and tracer uptake in culture media during treatments; type: cell-based, mouse; conditions: 1 mM 1,10-phenanthroline
Text: Leptin was almost as efficient as methyl-β-cyclodextrin in lowering Aβ (FIG. 4a, 4b).

[2] = tested on: SY5Y cells; experiment: 125I-Aβ uptake by SY5Y cells (apoE-dependent); type: cell-based, human
Method: Preparation of ApoE and binding with ^125I-Aβ. ApoE was isolated from the conditioned media of human embryonic kidney (HEK-293) cells stably-transfected with human apoE (having the ε3 allele or the ε4 allele) cDNA (Tezapsidis et al., FASEB J. 17:1322-1324 (2003)). These preparations, while usually poor in lipid, are fully functional for uptake experiments. ApoE then was pre-incubated with ^125I-Aβ overnight at 37° C. (Aβ/ApoE: 1/50 w/w) as described (Tezapsidis et al., FASEB J. 17:1322-1324 (2003)).
Aβ-uptake by SY5Y cells. Human ^125I-Aβ (iodinated at Tyr-10, Amersham Biosciences, IM 294) uptake was measured following addition of 0.1 nM ^125I-Aβ40 (SEQ ID NO: 4) to confluent SY5Y cells (60,000 cpm/ml) in the presence or absence of 100 ng/ml or 400 ng/ml leptin also included in a 24 h pre-incubation period. ^125I-Aβ was either added alone or was previously incubated with apoε3. In controls, Receptor Associated Protein (“RAP”, 1 μM) was added together with Aβ or the Aβ/apoE complex. RAP is an antagonist of a number of lipoprotein receptors (LaDu et al., Neurochem Int. 39:427-34 (2001)). After 24 h, the media were collected and subjected to scintillation counting for γ-Iradiation (Kang et al., 2000. J Clin Invest. 106:1159-66 (2000)). The amount of radioactivity was measured in both the trichloroacetic acid (10%) TCA pellets (representing intact Aβ) and the corresponding supernatants (representing degraded Aβ). 96.5±8.2% (mean±s.e.m., n=4 experiments, triplicate determinations) of the radioactivity found in the medium could be recovered in the TCA pellet and represented intact or oligomeric Aβ (not shown), when Aβ was pre-incubated with apoE.
The amount of TCA-precipitable radioactivity in the soluble fraction of cell lysates was compared to that in the total lysates, the ratio of which was typically about 0.8 to about 0.9 (not shown), to further verify that radioactivity was reduced in the media as a reflection of Aβ uptake by the cells, rather than due to non-specific binding to the extracellular surface of membranes or oligomerization/aggregation of Aβ.
In panel (a), Aβ uptake was measured in SY5Y cells following their treatment at 0 ng/ml, 100 ng/ml or 400 ng/ml leptin. Uptake also was measured in cells previously transfected with antisense DNA for PS1 as described (Tezapsidis et al., FASEB J. 17:1322-1324(2003)) (black). Uptake is expressed as the percentage of that observed with Aβ pre-incubated with apoε3 (medium gray) in the absence of leptin (first set of columns). […] Leptin induced a dose-dependent increase in Aβ uptake with a preference for apoε3 (medium gray) over apoε4 (light gray). In panel (b), SY5Y cells were pre-treated with […] cholesterol (+Chol) or normal medium (−Chol). Then Aβ uptake was measured following its preincubation with apoε3 (ε3) or apoε4 (ε4) in the absence (black) or the presence (gray) of about 400 ng/ml leptin. Cells were more resistant to taking-up Aβ when loaded with cholesterol. […] In panel (c), SY5Y cells were transiently transfected with SREBP-1 or SREBP-2 cDNA or an empty vector (Control). Then Aβ was measured in the medium by ELISAs (Figueiredo-Pereira et al., J Neurochem. 72:1417-22 (1999)) following treatment with (+) or without (−) leptin. […] In panel (d), Aβ uptake was measured in SY5Y cells prepared as in panel (c). Uptake was performed using Aβ/apoε3 complexes.

[3] = tested on: β-secretase; experiment: C99/C83 accumulation in SY5Y cells in presence of γ-secretase inhibitors (Western blot); type: cell-based, human; conditions: 5 h, with L-685,458 (100 nM) or Z-VL-CHO (100 μM); 10 μM cholesterol or 400 ng/ml leptin alone
[4] = tested on: neurons; experiment: Leptin immunostaining of neurons treated with cholesterol; type: cell-based, rat; conditions: neurons, 0, 5 or 10 μM cholesterol, 5 h
Method: (§1) Leptin was detected using a rabbit polyclonal antibody raised against mouse leptin, corss-reacting with human leptin (obtained from Dr. A. F. Parlow, Harbor-UCLA, CA). Immunofluorescent confocal microscopy was performed on 2% paraformaldehyde-fixed primary neural cells. Filipin staining was performed as described (Feng et al., Nat Cell Biol. 5:781-92 (2003)).
(§2) Neural cultures from ε15 rat cerebral cortex were processed for enrichment of neurons (a-d) or astrocytes (e-h) as described (Takeshima et al., J. Neurosci. Methods 67: 27-41 (1996)). After about 7 days to about 10 days in culture, cultures were treated for about 5 h with about 10 μg/ml cholesterol (b, f) or about 400 ng/ml leptin plus cholesterol (c, g) or leptin alone (d, h). Controls (a, e) were treated with culture media alone. Filipin staining was performed as described (Feng et al., Nat. Cell Biol. 5: 781-92 (2003)). Neurons (i-k) and astrocytes (l-n) prepared as above were treated with 0 μM (i, l), 5 μM (j, m) or 10 μM cholesterol (k, n) for 5 h. Immunostaining was performed for leptin (A.F.Parlow, Harbor-UCLA, CA).

[5] = tested on: astrocytes; experiment: Leptin immunostaining of astrocytes treated with cholesterol; type: cell-based, rat; conditions: astrocytes, 0, 5 or 10 μM cholesterol, 5 h
Method: as §1, §2

[6] = tested on: Neuro2a cells stably transfected with hyg-sa134 (SEAP-APP); experiment: Aβ production by Neuro2a cells stably transfected with hyg-sa134 (total Aβ in media, sandwich ELISA); type: cell-based, mouse; conditions: 5 h; about 400 ng/ml leptin alone or 10 μM water-soluble cholesterol alone; FIG. 4b

Compound | tracer's uptake by the cells [1] | Aβ degradation during the uptake ([2]; absence of apoE) | C99 level [3] | apoε3-Aβ taken up compared to controls ([2]; SY5Y cells preloaded with cholesterol/CDX, without leptin, FIG. 5b) | levels of leptin-like immunoreactivity [4] | levels of leptin-like immunoreactivity [5] | levels of Aβ detected in the media (percentage of corresponding controls) [6]
c1cnc2c(c1)ccc1cccnc12 [1,10-phenanthroline] | did not cause any significant difference | abolished Aβ degradation | – | – | – | – | –
CC(C)CCC[C@@H](C)[C@H]1CC[C@H]2[C@@H]3CC=C4C[C@@H](O)CC[C@]4(C)[C@H]3CC[C@]12C [cholesterol] | – | – | increase in C99 | 22±6% | enhanced | enhanced | 205±6%
